Source: patent US7807679B2, “Piperazine derivatives and their use in controlling pests” (Syngenta Crop Protection, Inc., priority 2004, dated 2010)

Legend:
[1] = test system: Spodoptera littoralis (Egyptian Cotton Leafworm); assay: Spodoptera littoralis cotton leaf disc spray test; assay type: in vivo; settings: foliar, 72 h, 200 ppm sprayed on cotton leaf discs, 5 L1 larvae, mortality, repellent effect, feeding behaviour, growth regulation 3 days after treatment
Excerpt: Spodoptera littoralis (Egyptian Cotton Leafworm)
Cotton leaf discs were placed on agar in a 24-well microtiter plate and sprayed with test solutions at an application rate of 200 ppm. After drying, the leaf discs were infested with 5 L1 larvae. The samples were checked for mortality, repellent effect, feeding behaviour, and growth regulation 3 days after treatment (DAT). The following compounds gave at least 80% control of Spodoptera littoralis: • I-3, I-26, I-29, I-30, I-49, I-52, I-53, I-75, I-417, I-532, I-578, I-785, I-854, I-877, II-49, III-49, V-49, XII-49, XIV-26, XV-26, XXIV-2, XXIV-46, XXIV-90, XXIV-93, XXIV-94, XXV-26 and XXV-49.

[2] = test system: Aedes aegypti (Yellow Fever Mosquito); assay: Aedes aegypti larvae test in microtiter plates; assay type: in vivo; settings: 48 h, larvae (L2) with nutrition mixture, mortality and growth inhibition 2 days later
Excerpt: 10-15 Aedes larvae (L2) together with a nutrition mixture are placed in 96-well microtiter plates. Test solutions at an application rate of 2 ppm are pipetted into the wells. 2 days later, insects were checked for mortality and growth inhibition. The following compounds gave at least 80% control of Aedes aegypti • I-3, I-26, I-29, I-30, I-49, I-52, I-53, I-72, I-75, I-76, III-49, III-118, XIV-26, XV-26, XXIV-2, XXIV-46, XXIV-90, XXIV-93, XXIV-94 and XXV-68.

[3] = test system: Myzus persicae (Green Peach Aphid); assay: Myzus persicae sunflower leaf disc spray test; assay type: in vivo; settings: foliar, 144 h, 200 ppm sprayed on sunflower leaf discs, aphid population of mixed ages, mortality after 6 DAT
Protocol: Sunflower leaf discs were placed on agar in a 24-well microtiter plate and sprayed with test solutions at an application rate of 200 ppm. After drying, the leaf discs were infested with an aphid population of mixed ages. After an incubation period of 6 DAT, samples were checked for mortality. The following compounds gave at least 80% control of Myzus persicae: • I-3, I-26, I-29, […], I-30, I-49, I-52, I-53, I-72, I-75, III-49, V-49, XXIV-46, XXIV-90 and XXIV-94.

[4] = test system: Heliothis virescens (Tobacco Budworm); assay: Heliothis virescens egg test on artificial diet; assay type: in vivo; settings: 96 h, 200 ppm by pipetting, eggs (0-24 h old) on artificial diet, egg mortality, larval mortality, growth regulation after 4 days
Protocol: Eggs (0-24 h old) were placed in 24-well microtiter plate on artificial diet and treated with test solutions at an application rate of 200 ppm by pipetting. After an incubation period of 4 days, samples were checked for egg mortality, larval mortality, and growth regulation. The following compounds gave at least 80% control of Heliothis virescen: • I-3, I-6, I-7, I-26, I-29, I-30, I-47, I-49, I-52, I-53, I-72, I-75, I-417, I-532, I-578, I-785, I-854, I-877, III-49, V-49, XII-49, XIV-26, XIV-49, XV-26, XVI-26, XVII-26, XXIV-2, XXIV-46, XXIV-90, XXIV-93, XXIV-94, XXV-2, XXV-26, XXV-49 and XXV-68.

| SMILES | pest or weed control at 200 ppm [1] [%] | pest or weed control at 2 ppm [2] [%] | pest or weed control at 200 ppm [3] [%] | pest or weed control at 200 ppm [4] [%] | melting point [°C] |
| --- | --- | --- | --- | --- | --- |
| O=C(Nc1ccc(Cl)cc1N1CCN(C/C=C/c2ccc(Cl)cc2)CC1)c1ccnc(Cl)c1 [Compound I-49, 2-chloro-N-(4-chloro-2-{4-[(E)-3-(4-chloro-phenyl)-allyl]-piperazin-1-yl}-phenyl)-isonicotinamide] | ≥ 80 | ≥ 80 | ≥ 80 | ≥ 80 |  |
| O=C(Nc1ccc(Cl)cc1N1CCN(C/C=C/c2ccc(C(F)(F)F)cc2)CC1)c1ccnc(Cl)c1 [Compound I-52, 2-chloro-N-(4-chloro-2-{4-[(E)-3-(4-trifluoromethyl-phenyl)-allyl]-piperazin-1-yl}-phenyl)-isonicotinamide] | ≥ 80 | ≥ 80 | ≥ 80 | ≥ 80 |  |
| O=C(Nc1ccc(Cl)cc1N1CCN(C/C=C/c2ccc(OC(F)(F)F)cc2)CC1)c1ccnc(Cl)c1 [Compound I-53, 2-chloro-N-(4-chloro-2-{4-[(E)-3-(4-trifluoromethoxy-phenyl)-allyl]-piperazin-1-yl}-phenyl)-isonicotinamide] | ≥ 80 | ≥ 80 | ≥ 80 | ≥ 80 |  |
| O=C(Nc1cc(F)ccc1N1CCN(C/C=C/c2ccc(C(F)(F)F)cc2)CC1)c1ccnc(Cl)c1 [Compound I-75, 2-chloro-N-(5-fluoro-2-{4-[(E)-3-(4-trifluoromethyl-phenyl)-allyl]-piperazin-1-yl}-phenyl)-isonicotinamide] | ≥ 80 | ≥ 80 | ≥ 80 | ≥ 80 |  |
| CN(C(=O)c1ccnc(Cl)c1)c1ccccc1N1CCN(C/C=C/c2ccc(Cl)cc2)CC1 [Example 2, 2-chloro-N-(2-{4-[(E)-3-(4-chloro-phenyl)-allyl]-piperazin-1-yl}-phenyl)-N-methyl-isonicotinamide] |  |  |  |  | 117 to 120 |
| CN1CCN(c2cc(Cl)ccc2NC(=O)c2ccnc(Cl)c2)CC1 [Example 3, 2-Chloro-N-[4-chloro-2-(4-methyl-piperazin-1-yl)-phenyl]-isonicotinamide] |  |  |  |  | 118 to 120 |
| COCCCNC(=O)Nc1ccc(F)cc1N1CCN(C/C=C/c2ccc(Cl)cc2)CC1 [Example 4, 1-(2-{4-[(E)-3-(4-chloro-phenyl)-allyl]-piperazin-1-yl}-4-fluoro-phenyl)-3-(3-methoxy-propyl)-urea] |  |  |  |  | 86 to 90 |
| O=C1N(Cc2cnc(Cl)s2)CCN1c1ccc(F)cc1N1CCN(C/C=C/c2ccc(Cl)cc2)CC1 [Example 5, 1-(2-{4-[(E)-3-(4-Chloro-phenyl)-allyl]-piperazin-1-yl}-4-fluoro-phenyl)-3-(2-chloro-thiazol-5-ylmethyl)-imidazolidin-2-one] |  |  |  |  | 72 to 77 |
| O=C(Nc1cnc(Cl)nc1N1CCN(C/C=C/c2ccc(OC(F)(F)F)cc2)CC1)c1ccnc(Cl)c1 [Example 7, 2-chloro-N-(2-chloro-4-{4-[(E)-3-(4-trifluoromethoxy-phenyl)-allyl]-piperazin-1-yl}-pyrimidin-5-yl)-isonicotinamide] |  |  |  |  | 210 to 211 |
| Cc1nn(C)c(N2CCN(C/C=C/c3ccc(Cl)cc3)CC2)c1NC(=O)c1ccnc(Cl)c1 [Example 8, 2-Chloro-N-(5-{4-[(E)-3-(4-chloro-phenyl)-allyl]-piperazin-1-yl}-1,3-dimethyl-1H-pyrazol-4-yl)-isonicotinamide] |  |  |  |  | 85 to 88 |
| O=C(Nc1c(Cl)cc(Cl)cc1N1CCN(C/C=C/c2ccc(Cl)cc2)CC1)c1ccnc(Cl)c1 [Example 10, 2-chloro-N-(2-{4-[(E)-3-(4-chloro-phenyl)-allyl]-piperazin-1-yl}-4,6-dichloro-phenyl)-isonicotinamide] |  |  |  |  | 79 to 80 |
| O=C(Nc1ccc(Cl)nc1N1CCN(C/C=C/c2ccc(Cl)cc2)CC1)c1ccnc(Cl)c1 [XXIV-46, 2-chloro-N-(6-chloro-2-{4-[(E)-3-(4-chloro-phenyl)-allyl]-piperazin-1-yl}-pyridin-3-yl)-isonicotinamide] | ≥ 80 | ≥ 80 | ≥ 80 | ≥ 80 |  |
| O=C(Nc1cc(Cl)cnc1N1CCN(C/C=C/c2ccc(Cl)cc2)CC1)c1ccnc(Cl)c1 [XXIV-90, 2-chloro-N-(5-chloro-2-{4-[(E)-3-(4-chloro-phenyl)-allyl]-piperazin-1-yl}-pyridin-3-yl)-isonicotinamide] | ≥ 80 | ≥ 80 | ≥ 80 | ≥ 80 |  |
| O=C(Nc1cc(Cl)cnc1N1CCN(C/C=C/c2ccc(OC(F)(F)F)cc2)CC1)c1ccnc(Cl)c1 [XXIV-94, 2-chloro-N-(5-chloro-2-{4-[(E)-3-(4-trifluoromethoxy-phenyl)-allyl]-piperazin-1-yl}-pyridin-3-yl)-isonicotinamide] | ≥ 80 | ≥ 80 | ≥ 80 | ≥ 80 |  |
